Experimental data taken from ChEMBL document CHEMBL1201862, “PubChem BioAssay data set” (2004).
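Exposure lasted 48 hours, with cells grown in 96-well plates and compounds tested at five concentrations. The concentration for 50% growth inhibition is given as GI50.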 Calls of active or inactive are those of the source. No stated cut-off is given here; in the data, active = GI50 up to about 1.1 µM and inactive = higher.

Key:
Assay in all cases: inhibition of tumour cell growth, NCI panel, 48 h
COLO 205 = test system: COLO 205
HCC 2998 = test system: HCC 2998
HCT-116 = test system: HCT-116
HCT-15 = test system: HCT-15
HL-60 = test system: HL-60
HT-29 = test system: HT-29
Hs-578T = test system: Hs-578T
K562 = test system: K562
KM12 = test system: KM12
LOX IMVI = test system: LOX IMVI
RPMI-8226 = test system: RPMI-8226
RXF 393 = test system: RXF 393
SK-MEL-2 = test system: SK-MEL-2
SN12C = test system: SN12C
SNB-19 = test system: SNB-19
SR = test system: SR
TK-10 = test system: TK-10
UACC-257 = test system: UACC-257
NCI-H226 = test system: NCI-H226

SMILES | GI50 (COLO 205) | GI50 (HCC 2998) | GI50 (HCT-116) | GI50 (HCT-15) | GI50 (HL-60) | GI50 (HT-29) | GI50 (Hs-578T) | GI50 (K562) | GI50 (KM12) | GI50 (LOX IMVI) | GI50 (RPMI-8226) | GI50 (RXF 393) | GI50 (SK-MEL-2) | GI50 (SN12C) | GI50 (SNB-19) | GI50 (SR) | GI50 (TK-10) | GI50 (UACC-257) | GI50 (NCI-H226)
Cc1cc(C)c(S(=O)(=O)N[C@@H](/C=C(\Br)CO)C(C)C)c(C)c1 | 15.8 µM (inactive) | 24.5 µM (inactive) | 33.4 µM (inactive) | 37.8 µM | 17.9 µM (inactive) | 31 µM (inactive) | 22.5 µM (inactive) | 18.5 µM (inactive) | 33.6 µM (inactive) | 18.7 µM (inactive) | 21.6 µM (inactive) | 23.4 µM (inactive) | 16.1 µM (inactive) | 16.8 µM (inactive) | 56 µM (inactive) | 25.1 µM (inactive) | 34.5 µM (inactive) | 21.5 µM (inactive) | 
O=C1CC(=O)NC(NN2C(=O)CSC2c2ccc(Cl)c(Cl)c2)=N1 (centres undefined) | > 100 µM (inactive) | > 100 µM (inactive) | 63.2 µM (inactive) | > 100 µM |  | 76.2 µM (inactive) | > 100 µM (inactive) | 49.8 µM (inactive) | 42.7 µM (inactive) |  | > 100 µM (inactive) | > 100 µM (inactive) | > 100 µM (inactive) | > 100 µM (inactive) |  | 43.8 µM (inactive) | > 100 µM (inactive) | > 100 µM (inactive) | > 100 µM (inactive)
CN(C)c1cccc2c(S(=O)(=O)NCCCNCCN)cccc12 | 17.6 µM (inactive) | 24 µM (inactive) | 36.2 µM (inactive) | > 100 µM | 26.1 µM (inactive) | 25.9 µM (inactive) | 22.3 µM (inactive) | 20.8 µM (inactive) | 67 µM (inactive) | 66.8 µM (inactive) |  | 36.8 µM (inactive) | 25.9 µM (inactive) | 78 µM (inactive) | > 100 µM (inactive) | 19.1 µM (inactive) |  | > 100 µM (inactive) | 64.6 µM (inactive)
CCOC(=O)c1nnn(CCCCO)c1C(=O)OCC | > 100 µM (inactive) | > 100 µM (inactive) | > 100 µM (inactive) | > 100 µM |  | > 100 µM (inactive) | > 100 µM (inactive) |  | > 100 µM (inactive) | > 100 µM (inactive) |  | > 100 µM (inactive) | > 100 µM (inactive) | > 100 µM (inactive) | 30.1 µM (inactive) | > 100 µM (inactive) | > 100 µM (inactive) | > 100 µM (inactive) | > 100 µM (inactive)
C=CCOC1(CC=C)C(=O)OC2C(O)COC21O (centres undefined) | > 100 µM (inactive) | > 100 µM (inactive) | > 100 µM (inactive) | > 100 µM | > 100 µM (inactive) | > 100 µM (inactive) | > 100 µM (inactive) | > 100 µM (inactive) | > 100 µM (inactive) | > 100 µM (inactive) |  | > 100 µM (inactive) | > 100 µM (inactive) | > 100 µM (inactive) | > 100 µM (inactive) | > 100 µM (inactive) | > 100 µM (inactive) | > 100 µM (inactive) | > 100 µM (inactive)
C=CCN1C(=O)/C(=C/c2ccccc2)N=C1SC1OC(COC(C)=O)C(OC(C)=O)C(OC(C)=O)C1OC(C)=O (centres undefined) |  | 49.7 µM (inactive) | 22.8 µM (inactive) | 28.1 µM | 26.5 µM (inactive) | 32.7 µM (inactive) | 25.5 µM (inactive) | 24.4 µM (inactive) | 39.9 µM (inactive) | 27.2 µM (inactive) | 24.4 µM (inactive) | 13.1 µM (inactive) | 18.5 µM (inactive) | 24.2 µM (inactive) | 29.6 µM (inactive) | 4.86 µM (inactive) | 72.8 µM (inactive) | 27.9 µM (inactive) | 
CC(=O)n1nc(-c2[nH]c(C)c(-c3nn(C(C)=O)c(=S)o3)c2C)oc1=S | > 100 µM (inactive) | > 100 µM (inactive) | > 100 µM (inactive) | > 100 µM |  | > 100 µM (inactive) | > 100 µM (inactive) | > 100 µM (inactive) | > 100 µM (inactive) | 82.8 µM (inactive) | > 56.6 µM (inactive) | > 100 µM (inactive) | > 62.4 µM (inactive) | > 100 µM (inactive) | > 100 µM (inactive) | 41 µM (inactive) | > 100 µM (inactive) | > 100 µM (inactive) | > 54 µM (inactive)
COc1ccc2[nH]c(S(=O)(=O)N3CC(CCl)c4ccc(N)cc43)cc2c1 (centres undefined) | 4.42 µM (inactive) | 2.94 µM (inactive) | 0.0269 µM (active) | < 0.0254 µM | < 0.01 µM (active) | 1.65 µM (inactive) | 0.0953 µM (active) | < 0.01 µM (active) | < 0.01 µM (active) | < 0.0229 µM (active) | 0.103 µM (active) | 0.675 µM (active) |  | 0.32 µM (active) | 8.22 µM (inactive) | < 0.01 µM (active) | 20.6 µM (inactive) | 4.14 µM (inactive) | 0.252 µM (active)
CCOC(=O)c1c(NC(=O)c2cccs2)sc2c1CCC2 | > 100 µM (inactive) |  | > 100 µM (inactive) | > 100 µM | > 100 µM (inactive) | > 100 µM (inactive) | > 100 µM (inactive) | > 100 µM (inactive) | > 100 µM (inactive) |  | > 100 µM (inactive) | > 100 µM (inactive) | > 100 µM (inactive) | > 100 µM (inactive) | > 100 µM (inactive) | 73.3 µM (inactive) | > 100 µM (inactive) | > 100 µM (inactive) | > 100 µM (inactive)
CCCCCC/C=C\CCCCCCCCCc1cccc(O)c1C(=O)O [GINKGOLIC ACID 17:1] | > 100 µM (inactive) | > 100 µM (inactive) | > 100 µM (inactive) | 32.6 µM | > 100 µM (inactive) | > 100 µM (inactive) | > 100 µM (inactive) | 65.9 µM (inactive) | > 100 µM (inactive) |  | 84.3 µM (inactive) | > 100 µM (inactive) | 31.7 µM (inactive) | > 100 µM (inactive) | 61.1 µM (inactive) | 45.4 µM (inactive) | 65 µM (inactive) | > 100 µM (inactive) | 60.7 µM (inactive)
COC(=O)/C=C(\C)CC/C=C(\C)CCC(O)C(C)(C)O (centres undefined) | 19.7 µM (inactive) | 16.8 µM (inactive) | 20.8 µM (inactive) | 23.3 µM | 15.6 µM (inactive) | 31.4 µM (inactive) | 28.6 µM (inactive) | 26.1 µM (inactive) | 13.9 µM (inactive) | 16.2 µM (inactive) |  | 26.3 µM (inactive) | 15.9 µM (inactive) | 19.3 µM (inactive) | > 100 µM (inactive) | 17.8 µM (inactive) | 45 µM (inactive) | 36.4 µM (inactive) | 28.8 µM (inactive)
O=C(O)c1ccc(Nc2cnc3cc(C(F)(F)F)ccc3n2)cc1 | > 100 µM (inactive) | 30.2 µM (inactive) | 54.7 µM (inactive) | 25.6 µM | 22.8 µM (inactive) | 63.2 µM (inactive) | 40 µM (inactive) | 29.5 µM (inactive) | 37.1 µM (inactive) | 35.8 µM (inactive) | 35.2 µM (inactive) | 46.9 µM (inactive) |  | 85.5 µM (inactive) | 60 µM (inactive) | 56.1 µM (inactive) | 31.5 µM (inactive) | 43.7 µM (inactive) | 71.3 µM (inactive)
